Patent publication US8192962B2, “Processes for detecting toxic substances” (Daikin Industries, Ltd., priority 2001, dated 2012)

System: Stress protein genes
Assay: DNA chip mRNA expression in yeast, stress protein genes (Table 6)
Assay type: cell-based, Saccharomyces cerevisiae S288C
Summary of the method: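 Untreated cultures served as reference for log-phase S288C yeast given a growth-inhibiting, non-lethal toxicant dose for 2 h at 25° C. in YPD. Gene expression was measured on a whole-genome DNA chip from Cy3/Cy5-labeled cDNA.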

C=CC=O [(14), acrolein]
The level of expressed mRNA in the presence of chemical substance/The level of expressed mRNA in the absence of chemical substance (yeast gene YAL005C): 0.4
The level of expressed mRNA in the presence of chemical substance/The level of expressed mRNA in the absence of chemical substance (yeast gene YAL015C): 1.6
The level of expressed mRNA in the presence of chemical substance/The level of expressed mRNA in the absence of chemical substance (yeast gene YBL075C): 1.1
The level of expressed mRNA in the presence of chemical substance/The level of expressed mRNA in the absence of chemical substance (yeast gene YBL093C): 1.0
The level of expressed mRNA in the presence of chemical substance/The level of expressed mRNA in the absence of chemical substance (yeast gene YBR044C): 0.9
The level of expressed mRNA in the presence of chemical substance/The level of expressed mRNA in the absence of chemical substance (yeast gene YBR054W): 1.0
The level of expressed mRNA in the presence of chemical substance/The level of expressed mRNA in the absence of chemical substance (yeast gene YBR067C): 0.7
The level of expressed mRNA in the presence of chemical substance/The level of expressed mRNA in the absence of chemical substance (yeast gene YBR072W): 5.8
The level of expressed mRNA in the presence of chemical substance/The level of expressed mRNA in the absence of chemical substance (yeast gene YBR126C): 0.7
The level of expressed mRNA in the presence of chemical substance/The level of expressed mRNA in the absence of chemical substance (yeast gene YBR169C): 1.1
The level of expressed mRNA in the presence of chemical substance/The level of expressed mRNA in the absence of chemical substance (yeast gene YCL035C): 2.5
The level of expressed mRNA in the presence of chemical substance/The level of expressed mRNA in the absence of chemical substance (yeast gene YCR021C): 1.6
The level of expressed mRNA in the presence of chemical substance/The level of expressed mRNA in the absence of chemical substance (yeast gene YCR060W): 1.7
The level of expressed mRNA in the presence of chemical substance/The level of expressed mRNA in the absence of chemical substance (yeast gene YCR083W): 2.4
The level of expressed mRNA in the presence of chemical substance/The level of expressed mRNA in the absence of chemical substance (yeast gene YDL022W): 0.8
The level of expressed mRNA in the presence of chemical substance/The level of expressed mRNA in the absence of chemical substance (yeast gene YDL025C): 1.7
The level of expressed mRNA in the presence of chemical substance/The level of expressed mRNA in the absence of chemical substance (yeast gene YDR033W): 1.0
The level of expressed mRNA in the presence of chemical substance/The level of expressed mRNA in the absence of chemical substance (yeast gene YDR077W): 0.3
The level of expressed mRNA in the presence of chemical substance/The level of expressed mRNA in the absence of chemical substance (yeast gene YDR098C): 1.5
The level of expressed mRNA in the presence of chemical substance/The level of expressed mRNA in the absence of chemical substance (yeast gene YDR155C): 1.0
The level of expressed mRNA in the presence of chemical substance/The level of expressed mRNA in the absence of chemical substance (yeast gene YDR258C): 1.5
The level of expressed mRNA in the presence of chemical substance/The level of expressed mRNA in the absence of chemical substance (yeast gene YDR293C): 0.8
The level of expressed mRNA in the presence of chemical substance/The level of expressed mRNA in the absence of chemical substance (yeast gene YDR436W): 1.2
The level of expressed mRNA in the presence of chemical substance/The level of expressed mRNA in the absence of chemical substance (yeast gene YDR513W): 2.0
The level of expressed mRNA in the presence of chemical substance/The level of expressed mRNA in the absence of chemical substance (yeast gene YDR519W): 1.3
The level of expressed mRNA in the presence of chemical substance/The level of expressed mRNA in the absence of chemical substance (yeast gene YEL030W): 0.7
The level of expressed mRNA in the presence of chemical substance/The level of expressed mRNA in the absence of chemical substance (yeast gene YEL039C): 1.4
The level of expressed mRNA in the presence of chemical substance/The level of expressed mRNA in the absence of chemical substance (yeast gene YER042W): 5.2
The level of expressed mRNA in the presence of chemical substance/The level of expressed mRNA in the absence of chemical substance (yeast gene YER057C): 1.4
The level of expressed mRNA in the presence of chemical substance/The level of expressed mRNA in the absence of chemical substance (yeast gene YER103W): 0.9
The level of expressed mRNA in the presence of chemical substance/The level of expressed mRNA in the absence of chemical substance (yeast gene YER125W): 0.7
The level of expressed mRNA in the presence of chemical substance/The level of expressed mRNA in the absence of chemical substance (yeast gene YFL014W): 7.3
The level of expressed mRNA in the presence of chemical substance/The level of expressed mRNA in the absence of chemical substance (yeast gene YFL016C): 0.8
The level of expressed mRNA in the presence of chemical substance/The level of expressed mRNA in the absence of chemical substance (yeast gene YFL020C): 1.0
The level of expressed mRNA in the presence of chemical substance/The level of expressed mRNA in the absence of chemical substance (yeast gene YFR052W): 3.3
The level of expressed mRNA in the presence of chemical substance/The level of expressed mRNA in the absence of chemical substance (yeast gene YGL073W): 1.2
The level of expressed mRNA in the presence of chemical substance/The level of expressed mRNA in the absence of chemical substance (yeast gene YGL115W): 1.2
The level of expressed mRNA in the presence of chemical substance/The level of expressed mRNA in the absence of chemical substance (yeast gene YGL181W): 1.0
The level of expressed mRNA in the presence of chemical substance/The level of expressed mRNA in the absence of chemical substance (yeast gene YGR088W): 1.3
The level of expressed mRNA in the presence of chemical substance/The level of expressed mRNA in the absence of chemical substance (yeast gene YHL028W): 1.3
The level of expressed mRNA in the presence of chemical substance/The level of expressed mRNA in the absence of chemical substance (yeast gene YHL046C): 1.4
The level of expressed mRNA in the presence of chemical substance/The level of expressed mRNA in the absence of chemical substance (yeast gene YHR030C): 1.1
The level of expressed mRNA in the presence of chemical substance/The level of expressed mRNA in the absence of chemical substance (yeast gene YHR057C): 1.9
The level of expressed mRNA in the presence of chemical substance/The level of expressed mRNA in the absence of chemical substance (yeast gene YHR104W): 1.5
The level of expressed mRNA in the presence of chemical substance/The level of expressed mRNA in the absence of chemical substance (yeast gene YIL011W): 0.5
The level of expressed mRNA in the presence of chemical substance/The level of expressed mRNA in the absence of chemical substance (yeast gene YIL033C): 0.7
The level of expressed mRNA in the presence of chemical substance/The level of expressed mRNA in the absence of chemical substance (yeast gene YIR037W): 2.3
The level of expressed mRNA in the presence of chemical substance/The level of expressed mRNA in the absence of chemical substance (yeast gene YIR038C): 2.5
The level of expressed mRNA in the presence of chemical substance/The level of expressed mRNA in the absence of chemical substance (yeast gene YJL128C): 0.8
The level of expressed mRNA in the presence of chemical substance/The level of expressed mRNA in the absence of chemical substance (yeast gene YJL158C): 0.5
The level of expressed mRNA in the presence of chemical substance/The level of expressed mRNA in the absence of chemical substance (yeast gene YJL159W): 0.6
The level of expressed mRNA in the presence of chemical substance/The level of expressed mRNA in the absence of chemical substance (yeast gene YJL165C): 0.9
The level of expressed mRNA in the presence of chemical substance/The level of expressed mRNA in the absence of chemical substance (yeast gene YJR045C): 0.5
The level of expressed mRNA in the presence of chemical substance/The level of expressed mRNA in the absence of chemical substance (yeast gene YJR090C): 1.0
The level of expressed mRNA in the presence of chemical substance/The level of expressed mRNA in the absence of chemical substance (yeast gene YKL161C): 1.4
The level of expressed mRNA in the presence of chemical substance/The level of expressed mRNA in the absence of chemical substance (yeast gene YKL163W): 0.5
The level of expressed mRNA in the presence of chemical substance/The level of expressed mRNA in the absence of chemical substance (yeast gene YKL164C): 0.3
The level of expressed mRNA in the presence of chemical substance/The level of expressed mRNA in the absence of chemical substance (yeast gene YKL210W): 0.8
The level of expressed mRNA in the presence of chemical substance/The level of expressed mRNA in the absence of chemical substance (yeast gene YKR053C): 1.3
The level of expressed mRNA in the presence of chemical substance/The level of expressed mRNA in the absence of chemical substance (yeast gene YLL024C): 0.4
The level of expressed mRNA in the presence of chemical substance/The level of expressed mRNA in the absence of chemical substance (yeast gene YLL026W): 0.8
The level of expressed mRNA in the presence of chemical substance/The level of expressed mRNA in the absence of chemical substance (yeast gene YLL039C): 1.4
The level of expressed mRNA in the presence of chemical substance/The level of expressed mRNA in the absence of chemical substance (yeast gene YLL060C): 10.6
The level of expressed mRNA in the presence of chemical substance/The level of expressed mRNA in the absence of chemical substance (yeast gene YLR006C): 1.0
The level of expressed mRNA in the presence of chemical substance/The level of expressed mRNA in the absence of chemical substance (yeast gene YLR109W): 2.3
The level of expressed mRNA in the presence of chemical substance/The level of expressed mRNA in the absence of chemical substance (yeast gene YLR259C): 0.8
The level of expressed mRNA in the presence of chemical substance/The level of expressed mRNA in the absence of chemical substance (yeast gene YML007W): 1.2
The level of expressed mRNA in the presence of chemical substance/The level of expressed mRNA in the absence of chemical substance (yeast gene YML070W): 1.3
The level of expressed mRNA in the presence of chemical substance/The level of expressed mRNA in the absence of chemical substance (yeast gene YMR021C): 1.3
The level of expressed mRNA in the presence of chemical substance/The level of expressed mRNA in the absence of chemical substance (yeast gene YMR173W): 2.3
The level of expressed mRNA in the presence of chemical substance/The level of expressed mRNA in the absence of chemical substance (yeast gene YMR186W): 0.6
The level of expressed mRNA in the presence of chemical substance/The level of expressed mRNA in the absence of chemical substance (yeast gene YNL064C): 0.8
The level of expressed mRNA in the presence of chemical substance/The level of expressed mRNA in the absence of chemical substance (yeast gene YNL160W): 1.3
The level of expressed mRNA in the presence of chemical substance/The level of expressed mRNA in the absence of chemical substance (yeast gene YNL241C): 1.1
The level of expressed mRNA in the presence of chemical substance/The level of expressed mRNA in the absence of chemical substance (yeast gene YNR076W): 0.8
The level of expressed mRNA in the presence of chemical substance/The level of expressed mRNA in the absence of chemical substance (yeast gene YOL064C): 0.9
The level of expressed mRNA in the presence of chemical substance/The level of expressed mRNA in the absence of chemical substance (yeast gene YOL161C): 0.9
The level of expressed mRNA in the presence of chemical substance/The level of expressed mRNA in the absence of chemical substance (yeast gene YOR008C): 0.9
The level of expressed mRNA in the presence of chemical substance/The level of expressed mRNA in the absence of chemical substance (yeast gene YOR009W): 0.7
The level of expressed mRNA in the presence of chemical substance/The level of expressed mRNA in the absence of chemical substance (yeast gene YOR010C): 0.4
The level of expressed mRNA in the presence of chemical substance/The level of expressed mRNA in the absence of chemical substance (yeast gene YOR027W): 0.8
The level of expressed mRNA in the presence of chemical substance/The level of expressed mRNA in the absence of chemical substance (yeast gene YOR208W): 1.3
The level of expressed mRNA in the presence of chemical substance/The level of expressed mRNA in the absence of chemical substance (yeast gene YPL059W): 1.3
The level of expressed mRNA in the presence of chemical substance/The level of expressed mRNA in the absence of chemical substance (yeast gene YPL106C): 0.9
The level of expressed mRNA in the presence of chemical substance/The level of expressed mRNA in the absence of chemical substance (yeast gene YPL140C): 1.1
The level of expressed mRNA in the presence of chemical substance/The level of expressed mRNA in the absence of chemical substance (yeast gene YPL194W): 1.1
The level of expressed mRNA in the presence of chemical substance/The level of expressed mRNA in the absence of chemical substance (yeast gene YPL223C): 2.5
The level of expressed mRNA in the presence of chemical substance/The level of expressed mRNA in the absence of chemical substance (yeast gene YPL240C): 0.7
The level of expressed mRNA in the presence of chemical substance/The level of expressed mRNA in the absence of chemical substance (yeast gene YPR005C): 1.3
The level of expressed mRNA in the presence of chemical substance/The level of expressed mRNA in the absence of chemical substance (yeast gene YPR026W): 1.5
